Values quoted from earlier work, collected in patent US20230321008A1, “INHIBITORS OF ACID SPHINGOMYELINASE FOR PREVENTING AND TREATING THE COVID-19 DISEASE” (priority 2020, published 2023).

Biological target: T1, acid sphingomyelinase (ASM) (Homo sapiens, UniProt P17405)
T1 sequence (P17405 47-631): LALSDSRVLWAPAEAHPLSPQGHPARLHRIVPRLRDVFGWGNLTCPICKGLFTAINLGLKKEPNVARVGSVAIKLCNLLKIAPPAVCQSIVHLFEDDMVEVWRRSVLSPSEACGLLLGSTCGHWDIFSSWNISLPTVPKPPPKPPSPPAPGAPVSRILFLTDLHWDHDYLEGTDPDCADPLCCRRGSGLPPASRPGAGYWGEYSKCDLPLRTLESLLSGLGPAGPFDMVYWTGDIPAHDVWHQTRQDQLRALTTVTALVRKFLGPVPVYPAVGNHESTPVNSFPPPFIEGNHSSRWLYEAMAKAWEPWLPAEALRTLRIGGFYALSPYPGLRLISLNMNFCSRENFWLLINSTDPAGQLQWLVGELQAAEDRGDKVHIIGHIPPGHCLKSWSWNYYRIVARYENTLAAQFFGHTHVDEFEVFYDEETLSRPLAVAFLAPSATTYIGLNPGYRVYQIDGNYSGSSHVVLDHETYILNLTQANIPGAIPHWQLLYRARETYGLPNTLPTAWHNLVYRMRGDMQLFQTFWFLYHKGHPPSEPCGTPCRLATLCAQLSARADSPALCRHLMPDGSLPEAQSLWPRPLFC
Conditions: cited from earlier work

Compound | In vitro inhibition of acid sphingomyelinase (in words)
CNCCCC1c2ccccc2C=Cc2ccccc21 [protriptyline] | in vitro inhibit acid sphingomyelinase with varying degrees
CC(NCCC(c1ccccc1)c1ccccc1)c1ccccc1 (stereo not shown) [fendiline] | in vitro inhibit acid sphingomyelinase with varying degrees
CN(CCCN1c2ccccc2CCc2ccccc21)CC(=O)c1ccc(Cl)cc1 [lofepramine] | in vitro inhibit acid sphingomyelinase with varying degrees
CCN(CCCCOC(=O)c1ccc(OC)c(OC)c1)C(C)Cc1ccc(OC)cc1 (stereo not shown) [mebeverine] | in vitro inhibit acid sphingomyelinase with varying degrees
CC/C(=C(\c1ccccc1)c1ccc(OCCN(C)C)cc1)c1ccccc1 [tamoxifen] | in vitro inhibit acid sphingomyelinase with varying degrees
CN1CCc2c(c3ccccc3n2Cc2ccccc2)C1 [mebhydrolin] | in vitro inhibit acid sphingomyelinase with varying degrees
OC1(c2ccc(Cl)c(C(F)(F)F)c2)CCN(CCCC(c2ccc(F)cc2)c2ccc(F)cc2)CC1 [Penfluridol] | in vitro inhibit acid sphingomyelinase with varying degrees
CC(C)(C)c1ccc(C(O)CCCN2CCC(C(O)(c3ccccc3)c3ccccc3)CC2)cc1 (stereo not shown) [terfenadine] | in vitro inhibit acid sphingomyelinase with varying degrees
CN1CCN(CCCN2c3ccccc3Sc3ccc(C(F)(F)F)cc32)CC1 [Trifluoperazine] | in vitro inhibit acid sphingomyelinase with varying degrees
Clc1ccc(C(OCCN2CCCCC2)c2ccccc2)cc1 (stereo not shown) [cloperastine] | in vitro inhibit acid sphingomyelinase with varying degrees
CN1[C@@H]2CC[C@H]1C[C@@H](OC(c1ccccc1)c1ccccc1)C2 [benztropine] | in vitro inhibit acid sphingomyelinase with varying degrees
COc1cc(C(=O)OCCCN2CCCN(CCCOC(=O)c3cc(OC)c(OC)c(OC)c3)CC2)cc(OC)c1OC [dilazep] | in vitro inhibit acid sphingomyelinase with varying degrees
C[C@@H]1CC[C@@]2(NC1)O[C@H]1C[C@H]3[C@@H]4CC=C5C[C@@H](O)CC[C@]5(C)[C@H]4CC[C@]3(C)[C@H]1[C@@H]2C [solasodine] | in vitro inhibit acid sphingomyelinase with varying degrees
CN(C)CCC=C1c2ccccc2COc2ccccc21 [doxepin] | in vitro inhibit acid sphingomyelinase with varying degrees
O=C1NCCN1CCN1CCC(c2cn(-c3ccc(F)cc3)c3ccc(Cl)cc23)CC1 [Sertindole] | in vitro inhibit acid sphingomyelinase with varying degrees
CCN(CC)CCCC(C)Nc1c2ccc(Cl)cc2nc2ccc(OC)cc12 (stereo not shown) [quinacrine] | in vitro inhibit acid sphingomyelinase with varying degrees
CCN(CC)CCNC(C(=O)OCCC(C)C)c1ccccc1 (stereo not shown) [camylofin] | in vitro inhibit acid sphingomyelinase with varying degrees
CCCCCCCCNC(C)C(O)c1ccc(SC(C)C)cc1 (stereo not shown) [suloctidil] | in vitro inhibit acid sphingomyelinase with varying degrees
CCN(CC)C(C)CN1c2ccccc2Sc2ccccc21 (stereo not shown) [profenamine] | in vitro inhibit acid sphingomyelinase with varying degrees
CN1CCC(=C2c3ccccc3Sc3ccccc32)CC1 [pimethixene] | in vitro inhibit acid sphingomyelinase with varying degrees

Compound | In vitro inhibition of acid sphingomyelinase (in words)
CN1CCN2c3ncccc3Cc3ccccc3C2C1 (stereo not shown) [mirtazapine] | there are discrepancies whether citalopram, venlafaxine and mirtazapine do have in vitro FIASMA effect
C[C@H]1CC[C@]2(NC1)O[C@H]1C[C@H]3[C@@H]4CC[C@H]5C[C@@H](O)CC[C@]5(C)[C@H]4CC[C@]3(C)[C@H]1[C@@H]2C [tomatidine] | in vitro inhibit acid sphingomyelinase with varying degrees
CC[C@H]1CN2CCc3cc(OC)c(OC)cc3[C@@H]2C[C@@H]1C[C@H]1NCCc2cc(OC)c(OC)cc21 [emetine] | in vitro inhibit acid sphingomyelinase with varying degrees
OC(CCN1CCCCC1)(c1ccccc1)C1CC2C=CC1C2 (stereo not shown) [biperidene] | in vitro inhibit acid sphingomyelinase with varying degrees
CCN(CCCc1ccccc1)CCCc1ccccc1 [alverine] | in vitro inhibit acid sphingomyelinase with varying degrees
COc1ccc(C(CN(C)C)C2(O)CCCCC2)cc1 (stereo not shown) [venlafaxine] | there are discrepancies whether citalopram, venlafaxine and mirtazapine do have in vitro FIASMA effect
CN(C)CCCN1c2ccccc2Sc2ccccc21 [Promazine] | in vitro inhibit acid sphingomyelinase with varying degrees
COc1ccccc1OCCNCC(O)COc1cccc2[nH]c3ccccc3c12 (stereo not shown) [Carvedilol, carvedilol] | in vitro inhibit acid sphingomyelinase with varying degrees
CNCCC=C1c2ccccc2CCc2ccccc21 [nortriptyline] | in vitro inhibit acid sphingomyelinase with varying degrees
C1CCC(C(CC2CCCCN2)C2CCCCC2)CC1 (stereo not shown) [perhexiline] | in vitro inhibit acid sphingomyelinase with varying degrees
CC(C)COCC(CN(Cc1ccccc1)c1ccccc1)N1CCCC1 (stereo not shown) [bepridil] | in vitro inhibit acid sphingomyelinase with varying degrees
CC(CN(C)C)CN1c2ccccc2CCc2ccccc21 (stereo not shown) [trimipramine] | in vitro inhibit acid sphingomyelinase with varying degrees
OCCN1CCN(CCCN2c3ccccc3Sc3ccc(Cl)cc32)CC1 [Perphenazine] | in vitro inhibit acid sphingomyelinase with varying degrees
CC(C)/N=c1\cc2n(-c3ccc(Cl)cc3)c3ccccc3nc-2cc1Nc1ccc(Cl)cc1 [clofazimine] | in vitro inhibit acid sphingomyelinase with varying degrees
CN(C)CC/C=C1/c2ccccc2Sc2ccc(Cl)cc21 [Chlorprothixene] | in vitro inhibit acid sphingomyelinase with varying degrees
CN(C)CCC=C1c2ccccc2C=Cc2ccccc21 [cyclobenzaprine] | in vitro inhibit acid sphingomyelinase with varying degrees
CC(CN1c2ccccc2Sc2ccccc21)N(C)C (stereo not shown) [promethazine] | in vitro inhibit acid sphingomyelinase with varying degrees
COc1ccc(CCN2CCC(Nc3nc4ccccc4n3Cc3ccc(F)cc3)CC2)cc1 [astemizole] | in vitro inhibit acid sphingomyelinase with varying degrees
CCN(CC)CCCN(c1ccccc1)C1Cc2ccccc2C1 [aprindine] | in vitro inhibit acid sphingomyelinase with varying degrees
CN(C)CCCN1c2ccccc2CCc2ccc(Cl)cc21 [Clomipramine, clomipramine] | in vitro inhibit acid sphingomyelinase with varying degrees
